Experimental data from PubChem BioAssay AID316 (DTP/NCI, 2004).
Values joined by “and” are separate entries in the source; they are usually repeats but may differ in a detail not shown here. Identical values can stand only once. Toxic doses and inconclusive results are not listed.

System: P1534 leukemia ip, CD2F1 mice, survival T/C
Experiment: NCI In Vivo Anticancer Drug Screen. Data for tumor model P1534 Leukemia (intraperitoneal) in CD2F1 (CDF1) mice
Conditions: higher = longer survival
Description: The antitumor activity of compounds was measured in mice bearing transplantable tumors. Survival or tumor size were measured and the results are expressed as the measurement made in the treated group (T) divided by the measurement made in the vehicle treated control group (C). The tumor model used in this assay is P1534 Leukemia (intraperitoneal) in CD2F1 (CDF1) mice

[1] = endpoint: mean survival time, dose: 100.0 mg/kg/injection, schedule: Q01DX010 (ip), vehicle: water
[2] = endpoint: mean survival time, dose: 300.0 mg/kg/injection, schedule: Q01DX010 (ip), vehicle: water
[3] = endpoint: mean survival time, dose: 25.0 mg/kg/injection, schedule: Q01DX010 (ip), vehicle: saline
[4] = endpoint: mean survival time, dose: 50.0 mg/kg/injection, schedule: Q01DX010 (ip), vehicle: saline
[5] = endpoint: mean survival time, dose: 100.0 mg/kg/injection, schedule: Q01DX010 (ip), vehicle: saline
[6] = endpoint: mean survival time, dose: 200.0 mg/kg/injection, schedule: Q01DX010 (ip), vehicle: saline
[7] = endpoint: mean survival time, dose: 400.0 mg/kg/injection, schedule: Q01DX010 (ip), vehicle: saline
[8] = endpoint: mean survival time, dose: 7.5 mg/kg/injection, schedule: Q01DX010 (ip), vehicle: saline
[9] = endpoint: mean survival time, dose: 15.0 mg/kg/injection, schedule: Q01DX010 (ip), vehicle: saline
[10] = endpoint: mean survival time, dose: 30.0 mg/kg/injection, schedule: Q01DX010 (ip), vehicle: saline
[11] = endpoint: mean survival time, dose: 150.0 mg/kg/injection, schedule: Q01DX010 (ip), vehicle: water

## CO[C@@H]1[C@@H](OC2OC(C)C(OC3CC(C)(O)C(OC(=O)CC(C)C)C(C)O3)C(N(C)C)C2O)[C@@H](CC=O)C[C@@H](C)C(=O)/C=C/C2O[C@H]2C[C@@H](C)OC(=O)C[C@H]1OC(C)=O (some centres not stated)
endpoint: mean survival time, dose: 50.0 mg/kg/injection, schedule: Q#A X020 (ip), vehicle: water
  T/C: 96 % of control
[1]
  T/C: 92 % of control
endpoint: mean survival time, dose: 100.0 mg/kg/injection, schedule: Q#A X020 (ip), vehicle: water
  T/C: 107 % of control and 109 % of control
endpoint: mean survival time, dose: 125.0 mg/kg/injection, schedule: Q#A X020 (ip), vehicle: water
  T/C: 113 % of control
endpoint: mean survival time, dose: 150.0 mg/kg/injection, schedule: Q#A X020 (ip), vehicle: water
  T/C: 115 % of control
endpoint: mean survival time, dose: 175.0 mg/kg/injection, schedule: Q#A X020 (ip), vehicle: water
  T/C: 116 % of control
endpoint: mean survival time, dose: 200.0 mg/kg/injection, schedule: Q01DX010 (ip), vehicle: water
  T/C: 110 % of control
endpoint: mean survival time, dose: 250.0 mg/kg/injection, schedule: Q01DX010 (ip), vehicle: water
  T/C: 121 % of control
[2]
  T/C: 104 % of control
endpoint: mean survival time, dose: 1000.0 mg/kg/injection, schedule: Q01DX010 (oral), vehicle: water
  T/C: 119 % of control

## NCCc1ccccc1
endpoint: mean survival time, dose: 15.6 mg/kg/injection, schedule: Q01DX010 (ip), vehicle: saline
  T/C: 96 % of control
endpoint: mean survival time, dose: 31.3 mg/kg/injection, schedule: Q01DX010 (ip), vehicle: saline
  T/C: 92 % of control
endpoint: mean survival time, dose: 62.5 mg/kg/injection, schedule: Q01DX010 (ip), vehicle: saline
  T/C: 100 % of control

## O=C(NO)c1ccc([N+](=O)[O-])cc1
endpoint: mean survival time, dose: 270.0 mg/kg/injection, schedule: Q01DX010 (ip), vehicle: water
  T/C: 108 % of control
endpoint: mean survival time, dose: 400.0 mg/kg/injection, schedule: Q01DX010 (ip), vehicle: water
  T/C: 112 % of control

## Cn1c(=O)c2c(ncn2C)n(C)c1=O
[3]
  T/C: 100 % of control
[4]
  T/C: 100 % of control
[5]
  T/C: 100 % of control

## O=C(NCCCCCCNC(=O)OCc1ccccc1)OCc1ccccc1
[4]
  T/C: 100 % of control
[5]
  T/C: 96 % of control
[6]
  T/C: 92 % of control
[7]
  T/C: 100 % of control

## CC(=O)[C@@]1(O)CC[C@H]2[C@@H]3C[C@H](C)C4=CC(=O)C=C[C@]4(C)[C@@]3(F)[C@@H](O)C[C@@]21C
endpoint: mean survival time, dose: 12.5 mg/kg/injection, schedule: Q01DX010 (sc), vehicle: steriod suspending solution
  T/C: 107 % of control
endpoint: mean survival time, dose: 25.0 mg/kg/injection, schedule: Q01DX010 (sc), vehicle: steriod suspending solution
  T/C: 107 % of control
endpoint: mean survival time, dose: 50.0 mg/kg/injection, schedule: Q01DX010 (sc), vehicle: steriod suspending solution
  T/C: 107 % of control
endpoint: mean survival time, dose: 100.0 mg/kg/injection, schedule: Q01DX010 (sc), vehicle: steriod suspending solution
  T/C: 100 % of control

## COc1cc2c(cc1Oc1c(Oc3c(O)c(OC)cc4c3C(CC(C)C)N(C)CC4)c(OC)cc3c1C(CC(C)C)N(C)CC3)C(CC(C)C)N(C)CC2 (configuration not stated)
[3]
  T/C: 107 % of control
[4]
  T/C: 115 % of control
[5]
  T/C: 111 % of control

## CC[C@]12C=CCN3CC[C@@]4(c5ccc(OC)cc5N(C)[C@H]4[C@@](O)(C(=O)OC)[C@@H]1OC(C)=O)[C@@H]32
[8]
  T/C: 93 % of control
[9]
  T/C: 93 % of control
[10]
  T/C: 96 % of control
endpoint: mean survival time, dose: 60.0 mg/kg/injection, schedule: Q01DX010 (ip), vehicle: saline
  T/C: 86 % of control

## N#Cc1cn(C2OC(CO)C(O)C2O)c2ncnc(N)c12 (configuration not stated)
endpoint: mean survival time, dose: 16.0 micrograms/kg/injection, schedule: Q01DX010 (ip), vehicle: saline
  T/C: 107 % of control
endpoint: mean survival time, dose: 32.0 micrograms/kg/injection, schedule: Q01DX010 (ip), vehicle: saline
  T/C: 100 % of control
endpoint: mean survival time, dose: 63.0 micrograms/kg/injection, schedule: Q01DX010 (ip), vehicle: saline
  T/C: 107 % of control

## O=C1C(=O)N(CN2CCCCC2)c2ccccc21
[4]
  T/C: 100 % of control
[5]
  T/C: 100 % of control
[6]
  T/C: 96 % of control
[7]
  T/C: 100 % of control

## CC1CCC(NC(=O)N(CCCl)N=O)CC1 (configuration not stated)
endpoint: median survival time, dose: 1.0 mg/kg/injection, schedule: Q01DX005 (ip), vehicle: other
  T/C: 111 % of control
endpoint: median survival time, dose: 4.0 mg/kg/injection, schedule: Q01DX005 (ip), vehicle: other
  T/C: 255 % of control
endpoint: median survival time, dose: 8.0 mg/kg/injection, schedule: Q01DX005 (ip), vehicle: other
  T/C: 255 % of control
endpoint: median survival time, dose: 16.0 mg/kg/injection, schedule: Q01DX005 (ip), vehicle: other
  T/C: 115 % of control

## N[C@@H](Cc1ccc(N(CCCl)CCCl)cc1)C(=O)O
endpoint: mean survival time, dose: 1.25 mg/kg/injection, schedule: Q01DX010 (ip), vehicle: saline
  T/C: 164 % of control
endpoint: mean survival time, dose: 2.5 mg/kg/injection, schedule: Q01DX010 (ip), vehicle: saline
  T/C: 189 % of control

## CN(Cc1cnc2nc(N)nc(N)c2n1)c1ccc(C(=O)N[C@@H](CCC(=O)O)C(=O)O)cc1
endpoint: median survival time, dose: 0.5 mg/kg/injection, schedule: Q01DX009 (ip), vehicle: sodium bicarbonate
  T/C: 158 % of control
endpoint: median survival time, dose: 1.0 mg/kg/injection, schedule: Q01DX009 (ip), vehicle: sodium bicarbonate
  T/C: 198 % of control

## CC(=O)OC(C)(C)/C=C/C(=O)[C@](C)(O)[C@H]1[C@H](O)C[C@@]2(C)[C@@H]3CC=C4[C@@H](C[C@H](O)C(=O)C4(C)C)[C@]3(CO)C(=O)C[C@]12C
endpoint: mean survival time, dose: 0.16 mg/kg/injection, schedule: Q01DX010 (ip), vehicle: saline
  T/C: 103 % of control
endpoint: mean survival time, dose: 0.25 mg/kg/injection, schedule: Q01DX010 (ip), vehicle: saline
  T/C: 107 % of control
endpoint: mean survival time, dose: 0.57 mg/kg/injection, schedule: Q01DX010 (ip), vehicle: saline
  T/C: 103 % of control

## COc1ccc(C(=O)C[C@H]2CCC[C@@H](CC(=O)c3ccc(OC)cc3)N2C)cc1
endpoint: mean survival time, dose: 10.0 mg/kg/injection, schedule: Q01DX010 (ip), vehicle: saline
  T/C: 107 % of control
endpoint: mean survival time, dose: 20.0 mg/kg/injection, schedule: Q01DX010 (ip), vehicle: saline
  T/C: 100 % of control
endpoint: mean survival time, dose: 40.0 mg/kg/injection, schedule: Q01DX010 (ip), vehicle: saline
  T/C: 100 % of control
endpoint: mean survival time, dose: 80.0 mg/kg/injection, schedule: Q01DX010 (ip), vehicle: saline
  T/C: 107 % of control

## CN(CC(=O)NCCCCCCCCCCNC(=O)CN(C)C(=O)OCc1ccccc1)C(=O)OCc1ccccc1
[4]
  T/C: 96 % of control
[5]
  T/C: 96 % of control
[6]
  T/C: 96 % of control
[7]
  T/C: 96 % of control

## NC1=NNC(=O)C1
[1]
  T/C: 95 % of control
[11]
  T/C: 95 % of control

## CS(=O)(=O)OCCC(=O)N1CCN(C(=O)CCOS(C)(=O)=O)CC1
[3]
  T/C: 160 % of control
[4]
  T/C: 150 % of control
[5]
  T/C: 270 % of control

## CC1=NN(c2ccccc2)C(=O)C1
[11]
  T/C: 94 % of control
[2]
  T/C: 91 % of control

## CC[C@]12C=CCN3CC[C@@]4(c5ccc(OC)cc5N(C)[C@H]4[C@@](O)(C(=O)OC)[C@@H]1O)[C@@H]32
endpoint: mean survival time, dose: 3.75 mg/kg/injection, schedule: Q01DX010 (ip), vehicle: saline
  T/C: 93 % of control
[8]
  T/C: 100 % of control
[9]
  T/C: 93 % of control
[10]
  T/C: 100 % of control
[4]
  T/C: 96 % of control
[5]
  T/C: 92 % of control

## O=c1cnn(C2OC(CO)C(O)C2O)c(=O)[nH]1 (configuration not stated)
[5]
  T/C: 105 % of control and 107 % of control
[6]
  T/C: 105 % of control and 120 % of control
endpoint: mean survival time, dose: 300.0 mg/kg/injection, schedule: Q01DX010 (ip), vehicle: saline
  T/C: 90 % of control and 94 % of control
[7]
  T/C: 103 % of control and 110 % of control
endpoint: mean survival time, dose: 700.0 mg/kg/injection, schedule: Q01DX010 (ip), vehicle: saline
  T/C: 86 % of control and 89 % of control
endpoint: mean survival time, dose: 800.0 mg/kg/injection, schedule: Q01DX010 (ip), vehicle: saline
  T/C: 93 % of control and 101 % of control
endpoint: mean survival time, dose: 1600.0 mg/kg/injection, schedule: Q01DX010 (ip), vehicle: saline
  T/C: 88 % of control

## CCN(CC)C(=S)S
endpoint: mean survival time, dose: 125.0 mg/kg/injection, schedule: Q01DX010 (ip), vehicle: saline
  T/C: 100 % of control
endpoint: mean survival time, dose: 250.0 mg/kg/injection, schedule: Q01DX010 (ip), vehicle: saline
  T/C: 100 % of control
endpoint: mean survival time, dose: 500.0 mg/kg/injection, schedule: Q01DX010 (ip), vehicle: saline
  T/C: 103 % of control
endpoint: mean survival time, dose: 1000.0 mg/kg/injection, schedule: Q01DX010 (ip), vehicle: saline
  T/C: 107 % of control

## N=[N+]=CC(=O)OCC(N)C(=O)O (configuration not stated)
endpoint: mean survival time, dose: 6.25 mg/kg/injection, schedule: Q01DX010 (ip), vehicle: other
  T/C: 155 % of control
endpoint: mean survival time, dose: 15.5 mg/kg/injection, schedule: Q01DX010 (ip), vehicle: saline
  T/C: 119 % of control

## CN(C)c1ccc(/C=C\c2ccnc3ccccc23)cc1
endpoint: mean survival time, dose: 8.0 mg/kg/injection, schedule: Q01DX010 (ip), vehicle: saline
  T/C: 115 % of control
endpoint: mean survival time, dose: 12.0 mg/kg/injection, schedule: Q01DX010 (ip), vehicle: saline
  T/C: 115 % of control
endpoint: mean survival time, dose: 18.0 mg/kg/injection, schedule: Q01DX010 (ip), vehicle: saline
  T/C: 103 % of control and 100 % of control
endpoint: mean survival time, dose: 27.0 mg/kg/injection, schedule: Q01DX010 (ip), vehicle: saline
  T/C: 123 % of control

## O=C(NCCCC(NC(=O)OCc1ccccc1)C(=O)NCCCCCCNCCCCCCNC(=O)C(CCCNC(=O)OCc1ccccc1)NC(=O)OCc1ccccc1)OCc1ccccc1 (configuration not stated)
endpoint: mean survival time, dose: 12.5 mg/kg/injection, schedule: Q01DX010 (ip), vehicle: saline
  T/C: 100 % of control
[3]
  T/C: 100 % of control
[5]
  T/C: 100 % of control
